Columns and labels:
[1] = system: layer V pyramidal neurons; test: Responses of layer V pyramidal neurons to hyperpolarizing/depolarizing current pulses (activity-dependent depolarization); assay type: cell-based, Thy1::ChR2 transgenic mice; conditions: for cells in which the activity-dependent depolarization and related phenomena were elicited: 5 μM (−) Quinpirole or 10 μM quinpirole, pooled; for effect on PCP-elicited activity-dependent depolarization and afterdepolarization: n=2 cells
Experimental: Electrophysiological recordings monitored the cellular responses of the layer V pyramidal neurons to in vitro light stimulation when under the pharmacological conditions or treatments.
Brain slices isolated from Thy1::ChR2 transgenic mice underwent direct current stimulation and a layer V pyramidal neuron was monitored by electrophysiological recordings for cellular responses to depolarizing current pulses in the absence or presence of 5 μM PCP.

[2] = system: layer V pyramidal neurons; test: Whole-cell voltage-clamp of ion channel currents mediating the activity-dependent depolarization; assay type: cell-based, mice
Text: We next sought to identify possible ion channel currents mediating the activity-dependent depolarization, in whole-cell voltage-clamp.

[3] = system: layer V pyramidal neurons; test: Responses of layer V pyramidal neurons to light flashes (ChR2 stimulation) in prefrontal slices; assay type: cell-based, Thy1::ChR2 transgenic mice; conditions: for spikes at short interspike intervals: quinpirole, or haloperidol or sulpiride, FIG. 2E, n=4 cells per group; for spiking in response to ChR2 stimulation: p<0.001 vs control
Experimental: We used prefrontal slices from Thy1::ChR2 mice to study network activity evoked by light. Brain slices isolated from Thy1::ChR2 transgenic mice underwent in vitro light stimulation and a layer V pyramidal neuron was monitored by electrophysiological recordings for cellular responses to trains of light flashes (470 nm, 1 msec) in the absence of a D2 agonist (control) or presence a D2 agonist (20 μM quinpirole). The brain slice was subsequently washed to remove the quinpirole and treated with either 0.2-2 μM haloperidol or 5 μM sulpiride, both of which are known D2 antagonists. The spike rate of the layer V pyramidal neurons and the amount of information transmitted by the spike rate was quantified as well as the number of spikes as a function of interspike interval.

[4] = system: layer V pyramidal neurons; test: as above; assay type: cell-based, Thy1::ChR2 transgenic mice
mice = test: Social exploration / social behavior in mice; assay type: in vivo; conditions: PCP 5 mg/kg alone; FIG. 4C bottom
[5] = cells with prominent sag and rebound afterdepolarization
[6] = haloperidol (0.2-2 μM) or sulpiride (5 μM), pooled group
[7] = haloperidol (0.2-2 μM) or sulpiride (5 μM), pooled group, p<0.01 vs control

CCCN1CCC[C@@H]2Cc3n[nH]cc3C[C@H]21 [(−) Quinpirole]
cells in which the activity-dependent depolarization and related phenomena were elicited [1, 5]: 8/10

CCCN1CCC[C@@H]2Cc3n[nH]cc3C[C@H]21 [quinpirole]
cells in which the activity-dependent depolarization and related phenomena were elicited [1, 5]: 8/10
cells exhibiting the activity-dependent depolarization ([1]; 20 μM quinpirole, cells with prominent sag and rebound afterdepolarization): 16/17
cells with bistability having peaks in power spectra between 20 and 40 Hz ([1]; quinpirole, FIG. 3F): 4/6
cells exhibiting the activity-dependent depolarization ([1]; quinpirole, cells without prominent sag and rebound afterdepolarization): 0/9
cells exhibiting the activity-dependent depolarization ([1]; quinpirole, neurons strongly expressing ChR2): 14/18
current at −30 mV after a series of 1 msec steps to 0 mV ([2]; quinpirole 20 μM): elicited a slowly activating depolarizing current
tail current at −60 mV after a series of 1 msec steps to 0 mV ([2]; quinpirole 20 μM): increased a rapidly inactivating tail current
layer V pyramidal neurons with prolonged depolarization outlasting direct stimulation after high-frequency spiking ([3]; quinpirole 20 μM, all layer V pyramidal neurons recorded): 16/26
amount of information the spike rate transmitted about the rate of light flashes ([3]; quinpirole 20 μM, compared with control, p<0.05): intermediate
change in responses to trains of light flashes ([3]; quinpirole 20 μM, light flashes 470 nm, 1 msec): marked change in the responses
spike afterhyperpolarization (AHP) ([3]; quinpirole 20 μM, single 1 msec light flash, FIG. 2F): enhanced the spike afterhyperpolarization
spikes at short interspike intervals [3]: loss of spikes at short interspike intervals
spike rate in response to ChR2 stimulation ([3]; quinpirole, p<0.01 vs control): lower spike rates

CCN1CCCC1CNC(=O)c1cc(S(N)(=O)=O)ccc1OC (stereo not shown) [sulpiride]
reversal of quinpirole-elicited prolonged depolarization ([4]; 5 μM sulpiride, simultaneous application with quinpirole): 2/2
block of the quinpirole activity-dependent depolarization ([1]; sulpiride 5 μM): 2/2
effect on PCP-elicited activity-dependent depolarization and afterdepolarization ([1]; sulpiride 5 μM, PCP 5 μM): not blocked
effect on PCP-elicited activity-dependent depolarization and afterdepolarization ([1]; sulpiride 5 μM, PCP 5 μM, listed as sulphide): not reversed
effect on quinpirole-elicited currents at −30 mV and −60 mV ([2]; sulpiride 5 μM): blocked
spiking in response to ChR2 stimulation [3, 6]: least
amount of information the spike rate transmitted about the rate of light flashes [3, 7]: lowest
action potential width ([3]; quinpirole + sulpiride 5 μM, FIG. 2F): widened action potentials
spikes at short interspike intervals [3]: loss of spikes at short interspike intervals

c1ccc(C2(N3CCCCC3)CCCCC2)cc1 [PCP, phencyclidine]
spiking at short interspike intervals during trains of light pulses ([4]; PCP, Thy1::ChR2 cortical slices): suppressed spiking at short interspike intervals
response to depolarizing current pulses ([1]; PCP 5 μM, FIG. 4A): exhibits an afterdepolarization and persistent firing
cells with activity-dependent depolarization and afterdepolarization outlasting direct stimulation ([1]; PCP 5 μM, all layer V pyramidal neurons recorded): 6/12
cells with activity-dependent depolarization ([1]; PCP 5 μM, neurons with prominent sag and rebound afterdepolarization): 6/9
cells with activity-dependent depolarization ([1]; PCP 5 μM, neurons without prominent sag and rebound afterdepolarization): 0/3
wide action potentials (possible dendritic Ca2+ spikes) ([1]; PCP, FIG. 4A): in some cases found to elicit wide action potentials
social exploration (mice): impairs social exploration

O=C(CCCN1CCC(O)(c2ccc(Cl)cc2)CC1)c1ccc(F)cc1 [haloperidol]
reversal of quinpirole-elicited prolonged depolarization ([4]; 0.2-10 μM haloperidol, washout of quinpirole and simultaneous application): 9/9
effect on activity-dependent depolarization present in control conditions (before quinpirole) ([1]; haloperidol 0.2-2 μM, n=3): convert bistability into a more modest afterdepolarization, or block the activity dependent depolarization altogether
block of the quinpirole activity-dependent depolarization ([1]; haloperidol 0.2-10 μM): 9/9
quinpirole-elicited prolonged depolarization after washing out quinpirole ([3]; haloperidol 1 μM, FIG. 2B): abolished
spiking in response to ChR2 stimulation [3, 6]: least
amount of information the spike rate transmitted about the rate of light flashes [3, 7]: lowest
spikes at short interspike intervals [3]: loss of spikes at short interspike intervals
